Results from publication PMC4794675, “Generation and Characterization of Monoclonal Antibodies against a Cyclic Variant of Hepatitis C Virus E2 Epitope 412-422” (Journal of Virology, 2016).
Bridge positions count the residues as written; N and C are the ends. Peptide text beside a SMILES is read from it.

Tested on: Fab C2
Assay: SPR epitope mapping: binding of epitope I peptide variants to immobilized Fab C2
Parameters: species or system mouse; Ka, binding to Fab C2: unit not given here
Settings: for Ka, binding to Fab C2 / Kd, binding to Fab C2: Fab C2 immobilized on CM5 chip, 25°C; for Kd: read-out: KD, binding to Fab C2, Fab C2 immobilized on CM5 chip, peptides 125 nM to 5 μM, HBS buffer, 25°C, NB = no binding
Method: All SPR analyses were performed on a Biacore 3000 instrument from GE Healthcare, using CM5 sensor chips and the HBS buffer certified for use with this instrument (20 mM HEPES, 0.15 M NaCl, pH 7.2, 0.005% polysorbate 20), at 25°C. Immobilization was carried out by means of the canonical amine-coupling chemistry using the surface immobilization wizard procedure operating at 5 μl/min. Channels were activated with a mixture of 1-ethyl-3-(3-dimethylaminopropyl)-carbodiimide and N-hydroxysuccinimide for 7 min; then, the ligand, which had been appropriately diluted in the preselected sodium acetate buffer, was coupled until a typical level of 500 to 600 response units (RU) was achieved. The remaining active ester groups were blocked with 1 M ethanolamine HCl, pH 8.5. […] The same procedure was applied to prepare an sE2-functionalized sensor chip. An IgG1 isotype-matched antibody was used as a negative control at a concentration of 5.0 μM. […] An underivatized surface was prepared on every sensor chip and used as a blank control. All analyses were carried out at a flow rate of 20 μl/min, and a constant volume of 60 μl of protein or peptide solution appropriately diluted in the HBS running buffer was injected.
For every analysis, experimental sensorgrams were aligned, the blank signal was subtracted, and the sensorgrams were overlapped. All mathematical manipulations and fitting of the data were performed using BIAevaluation (version 4.1) software (GE Healthcare).
To further investigate which peptide residues were mostly involved in the binding with the antibodies, we designed and prepared a panel of alanine-mutated cyclic peptides (Table 4). […] All peptides were tested at concentrations ranging from 125 nM to 5 μM.

CC[C@H](C)[C@@H]1NC(=O)[C@H](Cc2c[nH]cn2)NC(=O)[C@H](Cc2c[nH]c3ccccc23)NC(=O)[C@H](CCC(=O)O)NC(=O)[C@H](CCC(=O)O)NC(=O)[C@H](CC(N)=O)NC(=O)[C@H]([C@@H](C)O)NC(=O)[C@H](CC(N)=O)NC(=O)[C@H]([C@@H](C)CC)NC(=O)[C@H](CC(C)C)NC(=O)[C@H](CCC(N)=O)NC(=O)[C@@H](NC(=O)[C@H](CCCCN)NC(=O)[C@H](CCCCN)NC(C)=O)CSSC[C@@H](C(N)=O)NC1=O [C-epitope I mutant III] (Ac-KKCQLINTNEEWHIC-NH2; disulfide 3-15; N-terminus and C-terminus assumed) was tested, and the “Ka, binding to Fab C2” value (peptides 125 nM to 5 μM) was 16200 s⁻¹ and the “Kd, binding to Fab C2” value (peptides 125 nM to 5 μM) was 0.0754 M⁻¹ s⁻¹.
CC[C@H](C)[C@@H]1NC(=O)[C@H](CC(C)C)NC(=O)[C@H](CCC(N)=O)NC(=O)[C@@H](NC(=O)[C@H](CCCCN)NC(=O)[C@H](CCCCN)NC(C)=O)CSSC[C@@H](C(N)=O)NC(=O)[C@H]([C@@H](C)CC)NC(=O)[C@H](Cc2c[nH]cn2)NC(=O)[C@H](Cc2c[nH]c3ccccc23)NC(=O)[C@H](CO)NC(=O)CNC(=O)[C@H](C)NC(=O)[C@H](C)NC(=O)[C@H](C)NC1=O [C-epitope I mutant II] (Ac-KKCQLIAAAGSWHIC-NH2; disulfide 3-15; N-terminus and C-terminus assumed) was tested, and the “Ka, binding to Fab C2” value (peptides 125 nM to 5 μM) was 3200 s⁻¹ and the “Kd, binding to Fab C2” value (peptides 125 nM to 5 μM) was 4.73e-05 M⁻¹ s⁻¹.
CC[C@H](C)[C@@H]1NC(=O)[C@H](CC(C)C)NC(=O)[C@H](CCC(N)=O)NC(=O)[C@@H](NC(=O)[C@H](CCCCN)NC(=O)[C@H](CCCCN)NC(C)=O)CSSC[C@@H](C(N)=O)NC(=O)[C@H](C)NC(=O)[C@H](C)NC(=O)[C@H](C)NC(=O)[C@H](CO)NC(=O)CNC(=O)[C@H](CC(N)=O)NC(=O)[C@H]([C@@H](C)O)NC(=O)[C@H](CC(N)=O)NC1=O [C-epitope I mutant IV] (Ac-KKCQLINTNGSAAAC-NH2; disulfide 3-15; N-terminus and C-terminus assumed) was tested, and the “Ka, binding to Fab C2” value (peptides 125 nM to 5 μM) was 0, the “Kd, binding to Fab C2” value (peptides 125 nM to 5 μM) was 0 M⁻¹ s⁻¹ and the “affinity/binding to Fab C2 relative to wild type” value (Fab C2 immobilized, peptides 125 nM to 5 μM) was “abolished”. The Kd was > 5 µM.
For CC[C@H](C)[C@@H]1NC(=O)[C@H](Cc2c[nH]cn2)NC(=O)[C@H](Cc2c[nH]c3ccccc23)NC(=O)[C@H](CO)NC(=O)CNC(=O)[C@H](CC(N)=O)NC(=O)[C@H]([C@@H](C)O)NC(=O)[C@H](CC(N)=O)NC(=O)[C@H](C)NC(=O)[C@H](C)NC(=O)[C@H](C)NC(=O)[C@@H](NC(=O)[C@H](CCCCN)NC(=O)[C@H](CCCCN)NC(C)=O)CSSC[C@@H](C(N)=O)NC1=O [C-epitope I mutant I] (Ac-KKCAAANTNGSWHIC-NH2; disulfide 3-15; N-terminus and C-terminus assumed), the “Ka, binding to Fab C2” value (peptides 125 nM to 5 μM) was 1.22e+06 s⁻¹ and the “Kd, binding to Fab C2” value (peptides 125 nM to 5 μM) was 0.553 M⁻¹ s⁻¹.
In the case of CC[C@H](C)[C@H](NC(=O)[C@H](Cc1c[nH]cn1)NC(=O)[C@H](Cc1c[nH]c2ccccc12)NC(=O)[C@H](CO)NC(=O)CNC(=O)[C@H](CC(N)=O)NC(=O)[C@@H](NC(=O)[C@H](CC(N)=O)NC(=O)[C@@H](NC(=O)[C@H](CC(C)C)NC(=O)[C@H](CCC(N)=O)NC(=O)[C@H](CSC)NC(=O)[C@H](CCCCN)NC(=O)[C@H](CCCCN)NC(C)=O)[C@@H](C)CC)[C@@H](C)O)C(=O)N[C@@H](CSC)C(N)=O [L-epitope I] (Ac-KKC(Me)QLINTNGSWHIC(Me)-NH2; N-terminus and C-terminus assumed), the “Ka, binding to Fab C2” value (peptides 125 nM to 5 μM) is reported as 0, the “Kd, binding to Fab C2” value (peptides 125 nM to 5 μM) is reported as 0 M⁻¹ s⁻¹ and the Kd is reported as > 5 µM.
